Patent publication US20020006447A1, “Anti-chlamydia agent” (Mitsui Norin Co., Ltd., priority 1998, published 2002)

System: C. trachomatis
Test: C. trachomatis inclusion body formation in HeLa 229 cells after pre-incubation with single catechins (Example 2)
Type: cell-based, Chlamydia trachomatis
Conditions: incubated for 90 minutes at 37° C.
Description: As test Chlamydia was used C. trachomatis strain. Chlamydia capable of forming 10^4 inclusion bodies was incubated at 37° C. for 90 minutes in a SPG solution containing (−)-epicatechin gallate or (−)-epigallocatechin gallate in various concentratIons. After completion of the incubation, each solution was inoculated onto Hela 229 cell cultivated by monolayer culture and adsorbed by centrifugation at 1,500 rpm for 60 minutes. Thereafter, the inoculum was removed and culture medium for Chlamydia (Eagle Minimum Essential Culture Medium containing 1 μg/ml cycloheximide) was added and cultivation was performed at 37° C. for 72 hours. After completion of cultivation, the culture medium was removed and the cells were fixed with methanol and then stained with FITC-labeled anti-C. trachomatis monoclonal antibody, followed by counting the number of inclusion bodies of C. trachomatis.

(−)-epigallocatechin gallate was tested, and the “concentration that completely inhibited the growth of C. trachomatis” value was 1.6 mg/mL.

With `O=C(O[C@@H]1Cc2c(O)cc(O)cc2O[C@@H]1c1ccc(O)c(O)c1)c1cc(O)c(O)c(O)c1` [(−)-epicatechin gallate] the “concentration that completely inhibited the growth of C. trachomatis” value was 0.8 mg/mL.
